No end group written: not given here.
Tests used:
[1] = system: blood pressure; conditions: prior art report; cited from earlier work
[2] = system: ACTH secretion; conditions: prior art report; cited from earlier work
[3] = system: brain edema after freeze injury to cerebral cortex; assay: Freeze injury of cerebral cortex, water and sodium content as index of brain edema; type: in vivo, rat; conditions: CRF 30 μg/kg s.c. 2x, tissues 3 hr after injury, ±S.E.M., N=5
Procedure: In a second set of experiments, the brain surface, namely the cerebral cortex, was injured by freezing and the water and sodium content were measured in the cerebral cortex and in the basal ganglia, a part of the brain away from the freeze zone. The water and sodium content of the brain tissue served as an index of brain edema. After freeze injury, the water and sodium content of the cerebral cortex were evaluated relative to non-frozen tissues. CRF administered in two separate doses of 30 μg/kg subcutaneously, one dose 15 minutes before the injury and the second dose 90 minutes after the first dose, inhibited the two indices of brain edema.
Male SpragueDawley rats, 300-325 g, anesthetized with
ketamineacepromazine, were injected saline or CRF (30 μg/kg s.c. 2x)
and injury to cerebral cortex was produced by applying a cold probe to th
skull for 1 min. Brain tissues were obtained 3 hr later and analyzed for
water and sodium content.

[4] = system: edema-producing properties of inflammatory mediators in rat pawskin; conditions: mediators injected into the rat pawskin; previously shown; cited from earlier work
[5] = system: vascular leakage produced by PAF-acether; assay: Vascular leakage produced by PAF-acether injected subcutaneously into the abdomen; type: in vivo, rat; conditions: CRF 30 μg/kg s.c. 30 minutes before PAF-acether
Procedure: CRF: 30 μg/kg s.c. injected 30 minutes before subcutaneous injection o
PAFacether (1 μg/0.1 ml/rat) into the abdomen; muscle removed 0.5 hour

[6] = system: vascular leakage after musculature injury (celiotomy); assay: Vascular leakage after celiotomy (4 cm midline incision through abdominal muscle wall); type: in vivo, rat; conditions: for Lesions Size: tissues 0.5 hour after surgery
Procedure: Experiments were conducted on male Sprague-Dawley rats 243±15 gm (S. D., Simonsen Labs., Gilroy, Calif.) anesthetized with sodium pentobarbital, 60 mg/kg i.p. Monastral blue, 60 mg/kg i.v., was injected 0.2 ml/100 g, 3 minutes before a 4 cm midline incision through the abdominal muscle wall (celiotomy). Saline or CRF was administered to randomized pairs with N=8 rats per group. The size of the lesion, measured as area in mm^2, and its light intensity, were quantified using the JAVA image-analysis software program. The light intensity, given in arbitrary units, was internally calibrated using Monastral blue solutions (1-30 mg/ml) placed on white filter paper. Values are mean±S.E.M. FIG. 2 illustrates the respective amount of vascular permeability for one pair of rats (control and treated). Tables III and IV set out data from these experiments.
CRF: inhected at various doses subcutaneously 30 minutes before a 4 cm
middle incision, tissues taken 0.5 hour after surgery.
CRF: 30 μg/kg s.c. injected 2 hour before a 4 cm midline incision,
tissues taken 0.5 hour after surgery

[7] = system: vascular permeability produced by cold injury in brain; assay: Cold (freeze) injury to brain, vascular leakage by Monastral blue staining; type: in vivo, rat
From the text: An in vivo model of injury to study brain edema has been developed as a reproducible edema model, which has the features of immediate cortical damage followed by the subsequent development of brain edema. This model is described by Chan et al., Brain Research, 277, pp. 329-337 (1983). The model uses rats which are anesthetized. A 2.5 cm incision is made over the sagittal suture and the bone of the right hemisphere exposed. A 60 mm^2 plate attached to a brass cup filled with dry ice-acetone mixture, with a temperature of -50° C., is applied to the rat skull for one minute. The animals are sacrificed at various intervals after the onset of cold-injury. A dye is administered intravenously before the freezing. Cortical slices are then obtained of the brain.
Sixteen male rats were randomly divided into eight pairs and one rat in each pair received either saline or CRF (subcutaneously twice at 30 μg/kg, 30 min and 10 min before cold injury). The animals were anesthetized with sodium pentobarbital, 60 mg/kg intraperitoneally, and injected with Monastral blue, 60 mg/kg intravenously. A cold probe was applied onto the skull for four minutes and the brains taken out one hour after cold injury. The staining of brain tissues with Monastral blue, a colloidal pigment that gets trapped between the albuminal surface of the endothelial cell and the basement membrane, was proportional to the degree of vascular leakage. The results from the first pair are shown as FIG. 1.
The size of the lesion, measured as area in mm^2, and the degree of staining intensity, were quantified using an image-analysis software program called JAVA (Jandel Corporation, San Rafael, Calif.). The stain intensity, given in arbitrary units, was internally calibrated using Monastral blue solutions (1-30 mg/ml) placed on white filter paper. Values are mean ±S.E.M.

[8] = system: Pseudomonas; assay: Neutropenic rat model of sepsis (Pseudomonas infection), survival; type: in vivo; conditions: CRF 100 μg/kg i.v. twice a day for four days after onset of fever; day 11; 9/15; controls 100% mortality at 8 days
From the text: The neutropenic rat model of sepsis, designed to mimic the systemic inflammatory response syndrome in humans, is described by Collins et al. from The Journal of Infectious Diseases, 159:6 (June 1989) and The Journal of Clinical Investigation, 88:885 (September 1991). […] The animals die from overwhelming infection within 7 to 9 days of infection and examination of the tissues with histological and pathological techniques reveal the characteristic organic manifestations of the systemic inflammatory response syndrome, namely, organ edema and tissue necrosis.
In a typical experiment, 10 rats serving as controls received saline and 15 rats received CRF at a dose of 100 μg/kg intravenously, given twice a day for four days after the onset of fever. At the end of 8 days, all of the animals in the control group were dead (100% mortality). By contrast, 60% (9/15) of the CRF group were still alive at day 11 when the experiment was concluded. The difference between the saline and CRF treated groups were statistically significant (P<0.002).

[9] = CRF 15 μg/kg s.c. 30 minutes before incision
[10] = CRF 30 μg/kg s.c. 30 minutes before incision
[11] = CRF 60 μg/kg s.c. 30 minutes before incision

Row | Molecule | effect on blood pressure [1] | effect on ACTH secretion [2] | SODIUM mEq/kg dry ([3]; basal ganglia (non-injured)) [mEq/kg dry] | WATER CONTENT % ([3]; basal ganglia (non-injured)) [%] | SODIUM mEq/kg dry ([3]; cerebral cortex (injured)) [mEq/kg dry] | WATER CONTENT % ([3]; cerebral cortex (injured)) [%] | effect on edema-producing properties of inflammatory mediators [4] | muscle lesion size relative to saline-treated control group [5] [%] | lesion size relative to saline-treated group [6, 9] [%] | Lesions Size [6, 9] | lesion size relative to saline-treated group [6, 10] [%] | Lesions Size [6, 10] | lesion size relative to saline-treated group ([6]; CRF 30 μg/kg s.c. 2 hour before incision) [%] | lesion size relative to saline-treated group [6, 11] [%] | Lesions Size [6, 11] | lesion size of CRF-treated group relative to saline-treated group ([7]; CRF 30 μg/kg s.c. twice before cold injury) [%] | Intensity (Monastral blue stain intensity) ([7]; CRF 30 μg/kg s.c. twice, 30 min and 10 min before cold injury, brains taken 1 hour after injury, mean ± S.E.M.) [arbitrary units] | blinded observer correctly assigns brains to saline or CRF group (more vs less damaged) ([7]; eight pairs of rats) | animals still alive (survival) [8] [%]
1 | CC[C@H](C)[C@H](NC(=O)[C@@H](NC(=O)[C@H](CC(=O)O)NC(=O)[C@H](CC(C)C)NC(=O)[C@H](CC(C)C)NC(=O)[C@H](CC(C)C)NC(=O)[C@H](CCCNC(=N)N)NC(=O)[C@H](CC(N)=O)NC(=O)[C@H](CC(N)=O)NC(=O)[C@H](C)NC(=O)[C@H](C)NC(=O)[C@H](CCC(N)=O)NC(=O)[C@H](CCC(N)=O)NC(=O)[C@H](CCCCN)NC(=O)[C@H](CCC(=O)O)NC(=O)[C@H](CCCCN)NC(=O)[C@H](CCC(=O)O)NC(=O)[C@H](CCC(N)=O)NC(=O)[C@H](CCCCN)NC(=O)[C@H](CCC(=O)O)NC(=O)[C@@H](NC(=O)[C@H](CCC(=O)O)NC(=O)[C@@H](NC(=O)[C@H](CCSC)NC(=O)[C@H](CCCCN)NC(=O)[C@H](CCCNC(=N)N)NC(=O)[C@H](CC(C)C)NC(=O)[C@H](CC(C)C)NC(=O)[C@H](CCC(=O)O)NC(=O)[C@H](CC(C)C)NC(=O)[C@H](CO)NC(=O)[C@H](CC(C)C)NC(=O)[C@H](CC(=O)O)NC(=O)[C@@H](NC(=O)[C@H](CO)NC(=O)[C@@H](NC(=O)[C@@H]1CCCN1C(=O)[C@@H]1CCCN1C(=O)CNC(=O)[C@@H]1CCC(=O)N1)[C@@H](C)CC)[C@@H](C)CC)[C@@H](C)CC)[C@@H](C)CC)[C@@H](C)O)C(N)=O [Sauvagine] | lowering blood pressure | stimulating the secretion of ACTH and β-endorphin |  |  |  |  |  |  |  |  |  |  |  |  |  |  |  |  | 
2 | CRF: 41 amino acid neuropeptide present in brain and peripheral nerve endings; stimulates ACTH release from pituitary cells (SEEPPISLDLTFHLLREVLEMARAEQLAQQAHSNRKLMEII; not fully specified; ends and bridges not checked; UniProt P06850 154-194, looked up) |  |  | 215 ± 9 | 76 ± 1 | 271 ± 8 | 77 ± 4 | antagonize the edema-producing properties | 44 | 63 | 1031 ± 44 | 42 | 676 ± 47 | 59 | 29 | 468 ± 19 | 44 | 2.0 ± 0.05 | 8 out of 8 | 60

Reference: patent US5631226A, “Treatment to reduce edema” (The Regents of the University of California, priority 1995, dated 1997)
